Test results reported in US8592451B2, “Reversible nondepolarizing neuromuscular blockade agents and methods for their use” (Cornell University, priority 2009, dated 2013).
“Also recorded” adds a separate entry of the source.

What was measured:
[1] = L-cysteine adduction kinetics in vitro (HPLC); format: physicochemical; details: pH 7.4, 37° C.; for NMBA peak area / [NMBA] remaining / ln* = ln (([NMBA]t[L-cysteine]t=0)/([NMBA]t=0[L-cysteine]t)): CW 002 1000 μg/mL + 1.05 equiv. L-cysteine
Description: In a second experiment, to evaluate degradation in the presence of L-cysteine, buffered solutions (pH 7.4) of gantacurium, CW 002 or CW 011 were freshly prepared at 37° C. to give experimental concentrations of 1000 μg/mL (CW 002 and CW 011) and 200 μg/mL (gantacurium), after addition to and mixing with a 5% Molar excess of L-cysteine at time=0.
The concentration of neuromuscular blocking agent/parent compound remaining at specified time points after mixing was determined by high performance liquid chromatography. The concentration of blocking agent at each time point was determined from a separately prepared reaction mixture, due to the rapid rate of L-cysteine adduction. The reaction rate constant for the second order reaction of each neuromuscular blockade agent (NMBA) with L-cysteine was derived by plotting the natural log of ([NMBA]t[L-cysteine]t=0/[NMBA]t=0[L-cysteine]t) vs. time.
Concentrations selected were 200, 100 and 50 μg/ml which are approximately proportional to the relative potencies (ED 95) of gantacurium, CW 002 and CW 011 respectively. A degradation (adduction) pathway in the presence of L-cysteine for each of the three compounds was proposed.
The reaction of L-cysteine with CW 002, CW 011 or gantacurium is first order in the case of both the neuromuscular blockade agent (NMBA) and L-cysteine, represented by the rate equation (1). d[Adduct]/dt=−d[NMBA]/dt=ka[NMBA][L-cysteine] (1)
Calculation of the L-cysteine adduction half time requires experimental derivation of the reaction rate constant, ka, for each compound. The initial concentrations of NMBA and L-cysteine are unequal in the experiments conducted for this study, thus integration of equation 1 gives equation 2, where [NMBA]0 is the NMBA concentration at time equals 0 and [NMBA]t is the NMBA concentration at a time point, t.
[formula] A plot of the ln(([NMBA]t [L-cysteine]0)/([NMBA]0 [L-cysteine]t)) versus time (ln* vs. t) gives a line, with slope equal to ka([NMBA]0−[L-cysteine]0). An adduction reaction half time can be calculated by solving for ka to be used in equation 3.
NMBA standard solutions were prepared by a method similar to that used to prepare hydrolysis standards. The standards were prepared at 1000 μg/mL for CW 002 and CW 011 and 200 μg/mL for gantacurium.
Solutions used for determination of NMBA concentration at the reported times for CW 002 and CW 011 were prepared as follows: L-cysteine hydrochloride monohydrate was charged to a volumetric flask in de-ionized water. A 5 mL aliquot of the L-cysteine solution (1.05 equiv. L-cysteine with respect to NMBA) was transferred by volumetric pipette to a flask held at 37.0±0.3° C. CW 002 or CW 011 was then charged to a separate 25 mL volumetric flask and diluted to volume with pH 7.4 phosphate buffer at 37.0° C. The NMBA solution was then immediately transferred to the flask containing L-cysteine to give an initial NMBA concentration of 1000 μg/mL. Solutions used for determination of gantacurium concentration versus time were prepared in a similar manner to give an initial concentration of 200 μg/mL. T=0 was defined as the time of addition of NMBA solution to L-cysteine solution. The times listed in the results table show the point of HPLC sample injection following mixing of L-cysteine and NMBA at time=0 (Table 1, below).
Rate constants were calculated using equation (3) and the slope of the trend line derived from each data set. The strong linear correlation of the data within each set supports the use of second order kinetics for analysis of the cysteine adduction reactions.
Reaction half times were calculated using equation 4 and the experimentally determined rate constants. The initial NMBA concentrations were chosen to reflect the relative potency observed in vivo.

[2] = system: twitch of the extensor digitorum; test: Reversal of neuromuscular blockade by L-cysteine or neostigmine in anesthetized rhesus monkeys; format: in vivo, rhesus monkeys (Macaca mulatta)
Description: A control dose of 0.15 mg/kg CW 002 was allowed to recover spontaneously to TOF 110-120%. A second dose was given 60 minutes later, followed one minute afterwards by either neostigmine (0.05 mg/kg+atropine 0.05 mg/kg) or L-cysteine (10, 20, 30 or 50 mg/kg). Total duration and 5-95% recovery intervals were compared during spontaneous recovery vs. antagonism by L-cysteine or reversal by neostigmine.
This series of paired comparisons was designed to generate dose-response data comparing spontaneous recovery of high doses of CW 011 (from 4 to 64× ED95) versus immediate antagonism at +1 min by an optimal dose of L-cysteine (50 mg/kg), previously determined during studies of immediate antagonism of CW 002. This experiment was done to explore the limits of chemical antagonism by L-cysteine of these olefinic diester neuromuscular blocking drugs, using CW 011 as a typical example with an intermediate duration of action. Five groups of animals first received a control dose of CW 011 at 4, 8, 16, 32 or 64× ED 95 (0.1 to 1.6 mg/kg). Sixty minutes after spontaneous recovery of the control dose to TOF 110-120%, the same dose was repeated, followed 1 min later by L-cysteine (50 mg/kg). Total duration of action and 5-95% recovery interval were compared during spontaneous recovery and following antagonism by L-cysteine
The reversal of neuromuscular blockade by cysteine (5-50 mg/kg i.v.) was studied. Reversal was tested as follows: full paralysis was induced by injection of a dose of approximately 2-6× ED 95 of the compound in question. After spontaneous recovery of this dose, a second identical dose was given 15-30 min later. Cysteine was then given at +1 min after injection of the neuromuscular blocking drug at a point where no twitch was apparent (“immediate reversal”) or at the beginning of recovery from neuromuscular blockade at two percent twitch height (“classical reversal”). Comparisons were made among compounds with respect to rapidity and ease of cysteine reversal, by comparing 5-95% recovery times, and total durations of action (injection to 95% twitch recovery). Spontaneous recovery was compared with cysteine-accelerated recovery. […]

[3] = system: twitch contractions of the extensor digitorum muscle; test: Rhesus monkey anesthesia bioassay for potency and duration (substituent and stereochemical comparison, preliminary studies); format: in vivo; details: rhesus monkeys; for Potency (ED95 mg/kg): intravenously; for Potency (ED95 mg/kg) / Duration at 4X ED95 / Duration (minutes), from injection to 95% twitch recovery: preliminary studies; for Duration at 4X ED95: head prints no unit (column beside it: minutes); for Duration (minutes), from injection to 95% twitch recovery: dose not printed (beside ED95 column)
Description: Two stereoisomeric structures, CW 002 (R-trans, R-trans), and CW 003 (R-cis, R-cis) were tested in the rhesus monkey anesthesia bioassay for potency and duration. A third compound, CW 001 (R-trans, R-trans) bearing an additional methoxyl group on each of the two benzyl groups in the molecule, was also tested.
Rhesus monkeys were anesthetized with ketamine (7.5 mg/Kg) given intramuscularly or intravenously. Anesthesia was maintained with a mixture of isoflurane (1.5%), nitrous oxide (60%) and oxygen (40%). The common peroneal nerve was stimulated supramaximally with square wave pulses of 0.2 m sec duration at a rate of 0.15 Hz. Twitch contractions were recorded via the tendon of the extensor digitorum muscle.
In all animals, the trachea was intubated and ventilation was controlled at 12-15 ml/kg, 18-24 breaths per minute. A peripheral vein and artery were cannulated for drug administration and for recording of arterial pressure, respectively. In preliminary studies a neuromuscular blocking agent having one of the following structures was administered intravenously.

[4] = system: twitch of the extensor digitorum; test: Neuromuscular blocking potency and duration in anesthetized rhesus monkeys; format: in vivo, rhesus monkeys (Macaca mulatta); details: for Duration (± SD/SEM), from injection to recovery of twitch to 95% of baseline: spontaneous recovery
Description: Experiments were approved by the Institutional Animal Care and Use Committee of Weill Medical College of Cornell University (New York, N.Y.) and of Albany Medical College (Albany, N.Y.), where the studies were conducted. A colony of 10 adult male monkeys (Macaca mulatta) weighing 8-18 kg was studied at ˜6 week intervals. Animals were housed and cared for in accordance with the Guide for Care and Use of Laboratory Animals (National Research Council, Washington, D.C.). They were fed a standard Old World monkey diet, enriched with fruits and vegetables, and other dietary novelties and were followed throughout the study to verify normal health by physical examination, body weight, and clinical laboratory studies (Complete Blood Count, Blood Urea Nitrogen and creatinine, and liver function tests).
On the day of each study, monkeys received ketamine (7-10 mg/kg i.m.) followed by tracheal intubation under topical anesthesia with 4% lidocaine. Ventilation was controlled at 10 mL/kg and 20 breaths/min with isoflurane (1.0-2.0%) and N2O/O2 (2:1 mixture). Ringers lactate was administered at ˜10 ml kg^−1 h^−1. Arterial pressure was monitored from a femoral, superficial tibial, or radial (22 gauge) cannula. Heart rate was measured by tachograph from the arterial pulse wave. Core temperature was kept at 36.5-38.0° C. by warming blankets. Electrocardiogram and pulse oximetry were monitored continuously.
Needle electrodes (25 gauge) transmitting square-wave pulses of 0.2 msec duration at supramaximal voltage which were generated by a Grass S-88 stimulator (Grass Instruments, Quincy, Mass.) were placed at the peroneal nerve at the knee to elicit twitch responses of the extensor digitorum of the foot at 0.15 Hz. A small slip (10-20%) of the tendon was dissected free under sterile technique and tied to a Grass FT 10 force transducer (Grass Instruments, Quincy, Mass.) at a baseline tension of 50 gm. Train-of four stimulation (TOF, 2 Hz for 2 sec) was interposed at appropriate points, especially 1-2 min prior to NMBA dosing and following recovery of twitch to 95% of baseline, where TOF was subsequently evaluated every 1-2 min.
Recordings of circulatory and neuromuscular data were made on a Grass 7B polygraph (Grass Instruments). A baseline period of 15-20 min was allowed for stabilization of recordings prior to dosing.^2
Dose-response curves for twitch blockade by gantacurium, CW 002, CW 011, cisatracurium, CW002-Cys, NB 938-69, NB 1064-81, NB 802-17 (CW 001), NB 832-65, and NB 1163-79, structures of which are all shown above, were generated as follows. […] Successive doses were separated by at least three estimated half lives beyond complete recovery of the previous dose to TOF of 110-120%, which is normal for these monkeys. Only the first one or two doses yielding 5 to 99% blockade were included from any single experiment for computation of dose-response data.
Comparative studies of spontaneous recovery versus antagonism/reversal were done at least 3 estimated half-lives following dose-response studies.
ED 50 and ED 95 were computed from the regression of log dose vs. the logit of percentage blockade of twitch.
CW002-Cys, the L-cysteine adduct of CW 002, was available in limited quantity and was administered in cumulative fashion to three animals to compare approximate potency and duration of effect versus its parent compound CW 002.

With `COc1ccc(C[C@@H]2c3cc(OC)c(OC)cc3CC[N@@+]2(C)CCCOC(=O)/C=C/C(=O)OCCC[N@+]2(C)CCc3cc(OC)c(OC)cc3[C@H]2Cc2ccc(OC)c(OC)c2)cc1OC` [CW 002] the NMBA peak area ([1]; Trial 1, 142 Sec) was 2746.0 mAU's, the “[NMBA] remaining” value ([1]; Trial 1, 142 Sec) was 224 µM and the “ln* = ln (([NMBA]t[L-cysteine]t=0)/([NMBA]t=0[L-cysteine]t))” value (shortened to “ln* = ln”) ([1]; Trial 1, 142 Sec) was −0.240. For the same compound, the NMBA peak area ([1]; Trial 2, 170 Sec) was 2350.7 mAU's, the “[NMBA] remaining” value ([1]; Trial 2, 170 Sec) was 192 µM and the “ln* = ln” value ([1]; Trial 2, 170 Sec) was −0.277. The NMBA peak area ([1]; Trial 3, 188 Sec) was 2237.9 mAU's, the “[NMBA] remaining” value ([1]; Trial 3, 188 Sec) was 183 µM and the “ln* = ln” value ([1]; Trial 3, 188 Sec) was −0.297. The “Plot Slope (ln* vs. time)” value ([1]; L-cysteine adduction, data of Table 1) was −0.0012, the “ka, second order rate constant of L-cysteine adduction” value [1] was 14.3 M⁻¹ s⁻¹ and the half-life at 100 μg/ml ([1]; pH 7.4 phosphate buffer with L-cysteine, calculated at [NMBA]0 0.000102 M (100 μg/ml), read-out: L-cysteine adduction reaction half time t1/2) was 11.4 min. For the same compound, the “immediate antagonism of blockade by L-cysteine (FIG. 1B)” value ([2]; CW 002 0.15 mg/kg (~4× ED 95), L-cysteine 10, 20, 30 or 50 mg/kg at +1 min) was “dose-related acceleration of recovery”, the “immediate antagonism of blockade by neostigmine (FIG. 1A)” value ([2]; CW 002 0.15 mg/kg (~4× ED 95), neostigmine 0.05 mg/kg + atropine 0.05 mg/kg at +1 min) was “not achieved significantly faster than the spontaneous reversal; also recorded: did not shorten recovery” and the “time to reversal of blockade with cysteine (FIG. 1B)” value ([2]; CW 002 0.15 mg/kg, all cysteine concentrations tested (10 to 50 mg/kg)) was “less than 6 minutes”. For the same compound, the “time from cysteine administration to beginning of reversal (FIG. 1B)” value ([2]; CW 002 0.15 mg/kg, higher cysteine doses) was 2 to 3 min, the “time to spontaneous reversal of blockade (FIG. 1)” value ([2]; CW 002 0.15 mg/kg, no reversal agent) was “more than 12 minutes” and the “reversibility of neuromuscular blockade by thiol compounds” value ([2]; cysteine (L or D) or glutathione) was “reversible”. The “effect of neostigmine given immediately after the blocking drug” value ([2]; immediate reversal) was “ineffective”, the “classical antagonism of neuromuscular blockade by neostigmine” value ([2]; neostigmine given at beginning of spontaneous recovery, e.g. at 2% twitch height) was “showed antagonism” and the “reversibility of effect by cysteine or glutathione” value [3] was “reversible”. For the same compound, the “Potency (ED95 mg/kg)” value [3] was 0.04 mg/kg, the “Duration at 4X ED95” value [3] was 30-35 and the “Duration (minutes), from injection to 95% twitch recovery” value [3] was 20 to 25 min.

For `COc1cc2c(cc1OC)[C@@H](Cc1cc(OC)c(OC)c(OC)c1)[N@+](C)(CCCOC(=O)/C=C/C(=O)OCCC[N@+]1(C)CCc3cc(OC)c(OC)cc3[C@H]1Cc1cc(OC)c(OC)c(OC)c1)CC2` [NB 802-17], the “Duration (± SD/SEM), from injection to recovery of twitch to 95% of baseline” value ([4]; administered dose 0.03 mg/kg) was 35.0 ± 15.0 min, the “Duration (± SD/SEM), from injection to recovery of twitch to 95% of baseline” value ([4]; administered dose 0.10 mg/kg) was 49.4 ± 5.8 min and the “ED 95 (± SD/SEM)” value ([4]; twitch blockade, monkeys under isoflurane, twitch at 0.15 Hz, calculated from dose-response curve) was 0.033 ± 0.005 mg/kg. For the same compound, the “reversibility of effect by cysteine or glutathione” value [3] was “reversible”, the “Potency (ED95 mg/kg)” value [3] was 0.04 mg/kg and the “Duration at 4X ED95” value [3] was 50-60. For the same compound, the “Duration (minutes), from injection to 95% twitch recovery” value [3] was 30 to 40 min.
